Test results reported in the NIST ThermoML archive (doi:10.1021/je300972a).
Numbers after ± are expanded uncertainties.

Experiments:
[1] = 101 kPa, Liquid; for viscosity: Falling or rolling sphere viscometry; for mass density: Vibrating tube method
[2] = refractive index (Na D-line) (dimensionless); conditions: 101.33 kPa, Liquid, Standard Abbe refractometry
[3] = refractive index (Na D-line) (dimensionless); xn = mol fraction of the nth substance listed; conditions: 101 kPa, Liquid, Standard Abbe refractometry, x1 = 1
[4] = xn = mol fraction of the nth substance listed; conditions: 101 kPa, Liquid, x1 = 1; for viscosity: Falling or rolling sphere viscometry; for mass density: Vibrating tube method

CCCC[n+]1ccc(C)cc1.O=S(=O)([N-]S(=O)(=O)C(F)(F)F)C(F)(F)F
Conditions	mass density, [1] [kg/m3]	refractive index, [2]	viscosity, [1] [mPa·s]
293.15 K	1416.6 ± 1.7	1.448 ± 0.0007	70.6 ± 1.9
303.15 K	1407.3 ± 1.7	1.4449 ± 0.0007	45.2 ± 1.2
313.15 K	1398.1 ± 1.7	1.4419 ± 0.0007	30.6 ± 0.8
323.15 K	1388.8 ± 1.7	1.4388 ± 0.0007	21.8 ± 0.6
333.15 K	1379.7 ± 1.7	1.4358 ± 0.0007	16.1 ± 0.4
343.15 K	1370.5 ± 1.7	1.4328 ± 0.0007	12.3 ± 0.3
353.15 K	1361.5 ± 1.7	1.4298 ± 0.0007	9.8 ± 0.3

CCCC[n+]1ccccc1.F[B-](F)(F)F [1-butylpyridinium tetrafluoroborate] + CCCC[n+]1ccc(C)cc1.O=S(=O)([N-]S(=O)(=O)C(F)(F)F)C(F)(F)F
Conditions	mass density, [4] [kg/m3]	refractive index, [3]	viscosity, [4] [mPa·s]
293.15 K	1217.1 ± 1.6	1.447 ± 0.0007	227.1 ± 12
303.15 K	1210.3 ± 1.6	1.4444 ± 0.0007	123.6 ± 4.6
313.15 K	1203.5 ± 1.6	1.4418 ± 0.0007	74.8 ± 2.1
323.15 K	1196.7 ± 1.6	1.4392 ± 0.0007	48.1 ± 1.2
333.15 K	1189.9 ± 1.6	1.4366 ± 0.0007	33 ± 0.8
343.15 K	1183.2 ± 1.6	1.4341 ± 0.0007	23.8 ± 0.6
353.15 K	1176.5 ± 1.6	1.4315 ± 0.0007	17.7 ± 0.5

CCCC[n+]1ccccc1.F[B-](F)(F)F [1-butylpyridinium tetrafluoroborate]
Conditions	mass density, [1] [kg/m3]	refractive index, [2]	viscosity, [1] [mPa·s]
293.15 K	1217.1 ± 1.6	1.447 ± 0.0007	227.1 ± 12
303.15 K	1210.3 ± 1.6	1.4444 ± 0.0007	123.6 ± 4.6
313.15 K	1203.5 ± 1.6	1.4418 ± 0.0007	74.8 ± 2.1
323.15 K	1196.7 ± 1.6	1.4392 ± 0.0007	48.1 ± 1.2
333.15 K	1189.9 ± 1.6	1.4366 ± 0.0007	33 ± 0.8
343.15 K	1183.2 ± 1.6	1.4341 ± 0.0007	23.8 ± 0.6
353.15 K	1176.5 ± 1.6	1.4315 ± 0.0007	17.7 ± 0.5
